Measurements as given in patent publication US20220098620A1, “NOVEL NUCLEIC ACID MODIFIERS” (THE BROAD INSTITUTE, INC., priority 2019, published 2022).

System: GAPDH locus
Test: HiBiT sequence knock-in assay (NanoLuc luciferase complementation)
Type: cell-based
From the text: FIG. 39A-39E—Schematic of the HiBiT assay to check the HDR-mediated knock-in of the 33-nt DNA fragment. (FIG. 39A) General gRNA and ssODN design strategy for HDR-based HiBiT sequence knock-in right before the stop codon of the gene of interest. (FIG. 39B) The knock-in results in the expression of a fusion protein having a C-terminal HiBiT tag, which is a small fragment of the NanoLuc luciferase. When an excess amount of the other fragment of NanoLuc (LgBiT) is supplied, a fully functional NanoLuc is reconstituted. The resulting luminescence signal is proportional to the HDR efficiency. […]
Applicants then designed an ssODN that would insert a 33-nt DNA fragment (HiBiT sequence) at a gene of interest by HDR pathway (FIG. 39A). […] When complemented by LgBiT, the remainder of NanoLuc, the full-length luciferase is reconstituted to generate a luminescence signal proportional to the degree of ssODN incorporation, providing an easy readout for measuring the level of HDR (FIG. 39B). Applicants chose GAPDH as the first target gene (FIG. 39C) owing to its abundant expression in many cell types, which should allow for the reliable detection of the luminescence signal. […] Using the negative control ssODN without the complementary sequence, Applicants determined if appending the DNA adaptor to the cysteine affected Cas9 activity using the HiBiT insertion assay (FIG. 13b). […]

SMILES	HDR enhancement by NHEJ pathway inhibitors in the HiBiT assay
O=c1cc(N2CCOCC2)oc2c(-c3cccc4c3sc3ccccc34)cccc12 [KU-57788]	enhanced HDR enhancement
CCN1CCN(CC(=O)Nc2ccc(-c3cccc4c(=O)cc(N5CCOCC5)oc34)c3sc4ccccc4c23)CC1 [KU-0060648]	enhanced HDR enhancement
